In US8598202B2, “Aryl-hydroxyethylamino-pyrimidines and triazines as modulators of fatty acid amide hydrolase” (Janssen Pharmaceutica NV, priority 2008, dated 2013):
pIC50: −log10 of the molar value. Counter-ions that a name gives are not always drawn. Like-named read-outs stand apart in the source and are kept apart here.

What was measured:
Rat FAAH-1 = biological target: T1, Rat FAAH-1 (Rattus norvegicus, UniProt P97612); assay: Assay Method 2: rat FAAH-1 assay, 3H-anandamide hydrolysis in homogenate of SK-N-MC cells transfected with rat FAAH
T1 sequence (P97612 1-579): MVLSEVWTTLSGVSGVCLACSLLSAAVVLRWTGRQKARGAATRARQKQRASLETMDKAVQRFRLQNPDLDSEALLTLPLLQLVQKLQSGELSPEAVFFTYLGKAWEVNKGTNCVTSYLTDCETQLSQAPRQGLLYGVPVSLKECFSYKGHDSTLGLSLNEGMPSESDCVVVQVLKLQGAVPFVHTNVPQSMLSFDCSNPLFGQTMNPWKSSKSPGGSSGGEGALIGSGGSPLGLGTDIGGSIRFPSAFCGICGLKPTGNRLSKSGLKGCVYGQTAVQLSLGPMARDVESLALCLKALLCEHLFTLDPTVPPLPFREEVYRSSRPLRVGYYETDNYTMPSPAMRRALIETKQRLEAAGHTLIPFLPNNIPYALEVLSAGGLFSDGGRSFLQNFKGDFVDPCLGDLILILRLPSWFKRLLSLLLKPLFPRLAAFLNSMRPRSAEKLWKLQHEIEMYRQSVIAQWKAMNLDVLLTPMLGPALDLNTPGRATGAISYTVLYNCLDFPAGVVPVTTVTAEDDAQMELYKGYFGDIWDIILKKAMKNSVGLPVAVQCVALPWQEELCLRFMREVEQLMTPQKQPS

FAAH = biological target: T2, FAAH (Homo sapiens, UniProt O00519); assay: Assay Method 1: FAAH assay, 3H-anandamide hydrolysis in homogenate of T84 cells or SK-N-MC cells transfected with human FAAH
T2 sequence (O00519 1-579): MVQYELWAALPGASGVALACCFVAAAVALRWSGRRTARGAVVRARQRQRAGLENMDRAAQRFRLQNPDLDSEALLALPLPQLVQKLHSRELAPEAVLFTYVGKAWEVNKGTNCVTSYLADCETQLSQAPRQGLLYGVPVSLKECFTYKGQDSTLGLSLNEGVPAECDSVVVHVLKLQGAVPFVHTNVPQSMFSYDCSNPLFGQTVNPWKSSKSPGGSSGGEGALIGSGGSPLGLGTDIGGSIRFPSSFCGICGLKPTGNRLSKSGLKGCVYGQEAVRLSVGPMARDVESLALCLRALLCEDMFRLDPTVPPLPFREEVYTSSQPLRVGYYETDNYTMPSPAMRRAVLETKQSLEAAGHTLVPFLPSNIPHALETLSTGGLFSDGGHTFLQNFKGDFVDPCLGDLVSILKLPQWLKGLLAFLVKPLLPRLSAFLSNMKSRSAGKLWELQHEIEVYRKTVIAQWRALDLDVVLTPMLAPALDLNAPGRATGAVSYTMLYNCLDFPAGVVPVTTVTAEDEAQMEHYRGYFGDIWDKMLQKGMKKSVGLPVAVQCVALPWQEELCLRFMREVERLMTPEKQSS

| SMILES | pIC50 (Rat FAAH-1) | pIC50 (FAAH) | pIC50 (Rat FAAH-1; read-out: Assay 2 IC50, Table 2, Comparative Examples, rat FAAH-1) | pIC50 (FAAH; read-out: Assay 1 IC50, Table 2, Comparative Examples, human FAAH) |
| --- | --- | --- | --- | --- |
| CCCCOc1ccc(-c2cc(NC[C@H](O)c3ccccc3)ncn2)cc1F [Example 33, (1R)-2-{[6-(4-Butoxy-3-fluorophenyl)pyrimidin-4-yl]amino}-1-phenylethanol trifluoroacetic acid salt] | 5.70 | 6.57 |  |  |
| COc1cc(C(O)CNc2cc(-c3ccc(OC(F)(F)F)cc3)ncn2)ccc1O (stereo not shown) [Example 112, 4-{1-Hydroxy-2-[(6-{4-[(trifluoromethyl)oxy]phenyl}pyrimidin-4-yl)amino]ethyl}-2-(methyloxy)phenol] | 6.12 | 6.28 |  |  |
| OC(CNc1cc(-c2c(F)cccc2F)ncn1)c1ccccc1 (stereo not shown) [CE4, 2-[6-(2,6-Difluoro-phenyl)-pyrimidin-4-ylamino]-1-phenyl-ethanol, reference compound] |  |  | < 5.00 | < 5.00 |
| OC(CNc1cc(-c2c(F)cccc2F)ncn1)c1ccccc1 (stereo not shown) [Example 237, 2-[6-(2,6-Difluoro-phenyl)-pyrimidin-4-ylamino]-1-phenyl-ethanol] | < 5.00 | < 5.00 |  |  |
| C[C@@H]([C@H](O)c1ccccc1)N(C)c1cc(-c2ccc(OC(F)(F)F)cc2)ncn1 [Example 121, (1R,2S)-2-[Methyl(6-{4-[(trifluoromethyl)oxy]phenyl}pyrimidin-4-yl)amino]-1-phenylpropan-1-ol] | 5.52 | 6.24 |  |  |
| Cc1ccc(-c2cc(NC[C@H](O)c3ccccc3)ncn2)cc1F [Example 20, (1R)-2-{[6-(3-Fluoro-4-methylphenyl)pyrimidin-4-yl]amino}-1-phenylethanol trifluoroacetic acid salt] | 6.74 | 7.49 |  |  |
| CC(O)c1ccc(-c2cc(NC[C@H](O)c3ccccc3)ncn2)cc1F (stereo partly drawn) [Example 129, (1R)-2-({6-[3-Fluoro-4-(1-hydroxyethyl)phenyl]pyrimidin-4-yl}amino)-1-phenylethanol trifluoroacetic acid salt] | 6.92 | 7.80 |  |  |
| Cc1c(NC[C@H](O)c2ccccc2)ncnc1-c1ccc(C(F)(F)F)c(Cl)c1 [Example 47, (1R)-2-({6-[3-Chloro-4-(trifluoromethyl)phenyl]-5-methylpyrimidin-4-yl}amino)-1-phenylethanol trifluoroacetic acid salt] | 6.29 | 7.59 |  |  |
| CC(C)(C)c1ccc(-c2cc(NCC(O)c3ccccc3)ncn2)cc1 (stereo not shown) [Example 224, 2-({6-[4-(1,1-Dimethylethyl)phenyl]pyrimidin-4-yl}amino)-1-phenylethanol] | 6.27 | 7.55 |  |  |
| OC(CNc1cc(-c2ccc(C(F)(F)F)c(Cl)c2)ncn1)c1ccc(-c2cccs2)cc1 (stereo not shown) [Example 194, 2-({6-[3-Chloro-4-(trifluoromethyl)phenyl]pyrimidin-4-yl}amino)-1-(4-thiophen-2-ylphenyl)ethanol] | 6.68 | 7.96 |  |  |
| Cc1nc(NC[C@H](O)c2ccccc2)cc(-c2ccc(Cl)c(Cl)c2)n1 [Example 155, (1R)-2-{[6-(3,4-Dichlorophenyl)-2-methylpyrimidin-4-yl]amino}-1-phenylethanol] | 6.57 | 7.22 |  |  |
| C[C@H]([C@H](O)c1ccccc1)N(C)c1cc(-c2ccc(OC(F)(F)F)cc2)ncn1 [Example 120, (1R,2R)-2-[Methyl(6-{4-[(trifluoromethyl)oxy]phenyl}pyrimidin-4-yl)amino]-1-phenylpropan-1-ol] | < 5.00 | < 5.00 |  |  |
| OC(CNc1cc(-c2ccc(C(F)(F)F)c(Cl)c2)ncn1)c1ccc(N2CCCC2)cc1 (stereo not shown) [Example 208, 2-({6-[3-Chloro-4-(trifluoromethyl)phenyl]pyrimidin-4-yl}amino)-1-(4-pyrrolidin-1-ylphenyl)ethanol] | 6.30 | 7.55 |  |  |
| O=S(=O)(c1ccc(-c2cc(NC[C@H](O)c3ccccc3)ncn2)cc1)N1CCCCC1 [Example 79, (1R)-1-Phenyl-2-({6-[4-(piperidin-1-ylsulfonyl)phenyl]pyrimidin-4-yl}amino)ethanol] | 6.28 | 6.27 |  |  |
| OC(CNc1cc(-c2ccc(C(F)(F)F)c(Cl)c2)ncn1)c1cc2cc(Br)ccc2s1 (stereo not shown) [Example 218, 1-(5-Bromo-1-benzothiophen-2-yl)-2-({6-[3-chloro-4-(trifluoromethyl)phenyl]pyrimidin-4-yl}amino)ethanol] | 6.00 | < 5.00 |  |  |
| O=[N+]([O-])c1ccc(C(O)CNc2cc(-c3ccc(OC(F)(F)F)cc3)ncn2)cc1 (stereo not shown) [Example 107, 1-(4-Nitrophenyl)-2-[(6-{4-[(trifluoromethyl)oxy]phenyl}pyrimidin-4-yl)amino]ethanol] | 6.49 | 6.62 |  |  |
| NCCNc1nc(NC[C@H](O)c2ccccc2)cc(-c2ccc(C(F)(F)F)c(Cl)c2)n1 [Example 157, (1R)-2-({2-[(2-Aminoethyl)amino]-6-[3-chloro-4-(trifluoromethyl)phenyl]pyrimidin-4-yl}amino)-1-phenylethanol trifluoroacetic acid salt] | 5.40 | 5.70 |  |  |
| OC(CNc1cc(-c2ccc(OC(F)(F)F)cc2)ncn1)c1ccncc1 (stereo not shown) [Example 125, 1-Pyridin-4-yl-2-[(6-{4-[(trifluoromethyl)oxy]phenyl}pyrimidin-4-yl)amino]ethanol] | 5.30 | 6.05 |  |  |
| O[C@@H](CNc1cc(-c2ccc3ncccc3c2)ncn1)c1ccccc1 [Example 170, (1R)-1-Phenyl-2-[(6-quinolin-6-ylpyrimidin-4-yl)amino]ethanol] | 5.40 | 7.09 |  |  |

Further molecules by rising pIC50 (Rat FAAH-1), results first:

| pIC50 (Rat FAAH-1) | pIC50 (FAAH) | pIC50 (Rat FAAH-1; read-out: Assay 2 IC50, Table 2, Comparative Examples, rat FAAH-1) | pIC50 (FAAH; read-out: Assay 1 IC50, Table 2, Comparative Examples, human FAAH) | SMILES |
| --- | --- | --- | --- | --- |
| 7.10 | 7.49 |  |  | CN(C)c1nc(NC[C@H](O)c2ccccc2)cc(-c2ccc(C(F)(F)F)c(Cl)c2)n1 [Example 101, (1R)-2-({6-[3-Chloro-4-(trifluoromethyl)phenyl]-2-(dimethylamino)pyrimidin-4-yl}amino)-1-phenylethanol trifluoroacetic acid salt] |
| 7.22 | 8.05 |  |  | O[C@@H](CNc1cc(-c2ccc(I)cc2)ncn1)c1ccccc1 [Example 142, (1R)-2-{[6-(4-Iodophenyl)pyrimidin-4-yl]amino}-1-phenylethanol] |
| 7.40 | 8.05 |  |  | C[C@H](Nc1cc(-c2ccc(C(F)(F)F)c(Cl)c2)ncn1)[C@H](O)c1ccccc1 [Example 179] |
| 7.55 | 8.22 |  |  | Nc1nc(NC[C@H](O)c2ccccc2)cc(-c2ccc(C(F)(F)F)c(Cl)c2)n1 [Example 61, (1R)-2-({2-Amino-6-[3-chloro-4-(trifluoromethyl)phenyl]pyrimidin-4-yl}amino)-1-phenylethanol trifluoroacetic acid salt] |
| 7.66 | 7.49 |  |  | COc1cccc(C(O)CNc2cc(-c3ccc(OC(F)(F)F)cc3)ncn2)c1 (stereo not shown) [Example 117] |
| 7.85 | 7.82 |  |  | COc1nc(NC[C@H](O)c2ccccc2)cc(-c2ccc(C(F)(F)F)c(Cl)c2)n1 [Example 164, (1R)-2-({6-[3-Chloro-4-(trifluoromethyl)phenyl]-2-methoxypyrimidin-4-yl}amino)-1-phenylethanol trifluoroacetic acid salt] |
| 7.92 | 8.15 |  |  | OC(CNc1cc(-c2ccc(C(F)(F)F)c(Cl)c2)ncn1)c1ccc(F)cc1 (stereo not shown) [Example 190, 2-({6-[3-Chloro-4-(trifluoromethyl)phenyl]pyrimidin-4-yl}amino)-1-(4-fluorophenyl)ethanol] |
| 8.00 | 7.92 |  |  | CC(=O)c1ccc(-c2cc(NC[C@H](O)c3ccccc3)ncn2)cc1 [Example 17, 1-[4-(6-{[(2R)-2-Hydroxy-2-phenylethyl]amino}pyrimidin-4-yl)phenyl]ethanone] |
| 8.22 | 7.33 |  |  | OC(CNc1cc(-c2ccc(C(F)(F)F)c(Cl)c2)ncn1)c1ccc2ccccc2c1 (stereo not shown) [Example 192, 2-({6-[3-Chloro-4-(trifluoromethyl)phenyl]pyrimidin-4-yl}amino)-1-naphthalen-2-ylethanol] |
| 8.52 | 8.52 |  |  | O[C@@H](CNc1cc(-c2ccc3c(C(F)(F)F)noc3c2)ncn1)c1ccc(F)cc1 [Example 177, (1R)-1-(4-Fluorophenyl)-2-({6-[3-(trifluoromethyl)-1,2-benzisoxazol-6-yl]pyrimidin-4-yl}amino)ethanol trifluoroacetic acid salt] |
